Experimental data from US9000023B2, “Disubstituted phthalazine hedgehog pathway antagonists” (Eli Lilly and Company, priority 2009, dated 2015).
Where a name gives a salt, the structure may show the parent alone.

Tests used:
Gli1 in Daoy cells = assay: Functional assay for measuring the inhibition of Gli1 in Daoy cells (bDNA assay); format: cell-based; settings: Homo sapiens; Daoy cells stimulated with Shh conditioned media, 24 hours with compound, Gli1 transcript by bDNA luminescence
Protocol: All ligands, solvents, and reagents employed in the following assay are readily available from commercial sources or can be readily prepared by one skilled in the art. Biological activity is determined using a functional assay in Daoy neuronal cancer cells and measures levels of Gli1 ribonucleic acid via a bDNA (branched deoxyribonucleic acid) assay system (Panomics, Inc., Fremont, Calif.). Gli was originally discovered in a Glioblastoma cell line and encodes a zinc finger protein that is activated by Shh signaling. The maximum response is obtained by inducing Gli1 transcription in the Daoy cells with conditioned medium (human embryonic kidney, HEK-293 cells stably expressing recombinant Shh) for 24 hours and then measuring the amount of stimulated Gli1 transcript. […] The bDNA assay system utilizes the technology of branched-chain DNA to allow amplification of a target ribonucleic acid (transcript). […] The addition of a chemilumigenic substrate during the amplification step allows for detection using luminescence. […] The cells are removed from the T225-flasks using trypsin ethylenediaminetetraacetic acid (EDTA), centrifuged, resuspended in media, and then counted. […] The signal is quantified by reading the plates on a Perkin Elmer Envision reader detecting luminescence. […]

CYP3A4 = CYP3A4 (Homo sapiens, UniProt P08684); assay: CYP3A4 Inhibition Assay (human liver microsomes, midazolam substrate); settings: pH 7.4, probe midazolam (5 μM; formation of 1-OH-midazolam)
Chain of CYP3A4 (P08684 whole entry): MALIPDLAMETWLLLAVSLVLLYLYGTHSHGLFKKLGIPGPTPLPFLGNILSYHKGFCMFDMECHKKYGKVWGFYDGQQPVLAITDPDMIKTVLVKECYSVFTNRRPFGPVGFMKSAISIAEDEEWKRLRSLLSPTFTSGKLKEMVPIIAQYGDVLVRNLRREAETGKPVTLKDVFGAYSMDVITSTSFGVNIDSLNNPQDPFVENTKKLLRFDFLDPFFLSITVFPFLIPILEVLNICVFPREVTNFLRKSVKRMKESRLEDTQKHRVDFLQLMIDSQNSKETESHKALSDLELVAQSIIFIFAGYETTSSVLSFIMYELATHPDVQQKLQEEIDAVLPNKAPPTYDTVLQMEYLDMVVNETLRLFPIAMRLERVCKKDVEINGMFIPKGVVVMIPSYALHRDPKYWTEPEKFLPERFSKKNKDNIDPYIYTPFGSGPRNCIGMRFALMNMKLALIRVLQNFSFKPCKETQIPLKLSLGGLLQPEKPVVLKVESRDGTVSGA

IC50 (Gli1 in Daoy cells): ~2.4 nM
inhibition at 3 min, 10 μM (CYP3A4): 13.5%
Structure (SMILES): CN(C(=O)c1ccc(F)cc1C(F)(F)F)C1CCN(c2nnc(-c3ccnn3C)c3ccccc23)CC1 [Example 1a, 4-Fluoro-N-methyl-N-(1-(4-(1-methyl-1H-pyrazol-5-yl)phthalazin-1-yl)piperidin-4-yl)-2-(trifluoromethyl)benzamide hydrochloride]
